# Read-outs that look alike come from different tables or passages of the source.
# Assays:
# [1] = sublingual drops, cited from earlier work
# [2] = Pharmacokinetic studies for CBD- and THC-loaded SEDDS based on tributyrin; conditions: oral, 0.125 mg THC/2.5 mg CBD (CBD:THC 20:1)
# Experimental: The PK studies were carried out on rats. Three animals were used in each time point. At each test point, animals were sacrificed and blood (5-6 ml) withdrawn from the heart and collected in heparinized tubes.
# Each rat was orally administered with 1 mil of the test formulation. Blood samples were withdrawn at different time points: 0, 0.5, 1, 2, 4, 6, 10 and 24 hours. The blood samples were centrifuged at 4000 rpm and the plasma was separated and collected in clean polyethylene tubes and kept at −80° C. until analysis using LC-MS/MS.
# TB1 liquid SEDDS formulations were tested: 200 parts tributyrin, 350 parts Cremophor RH40, 350 parts PEG400, 350 parts PG.
# The HPLC system consisted of a Dionex/Thermo Scientific UltiMate 3000 UHPLC systems fitted with a 100 μL sample loop, Dionex™ UltiMate™ 3000 Rapid Separation Diode Array Detector, and integration software Chromeleon Chromatography Data System (CDS).
# Chromatographic separation was performed with guard column Luna® 5 μm C18(2) 100 Å, LC Column 150×4.6 mm, using an isocratic mobile phase of water (0.1% formic acid): acetonitrile (0.1% formic acid) 10:90 at a flow rate of 1 mL/min for 10 in minisocratic condition. The column temperature was 40° C. and the injection volume was 100 μL.
# Dual ion electrospray ionization (DUIS) in positive was used for ionization of the analytes on the ISQ™ EC. […]
SMILES,Cmax ([1]; CBD dose 10 mg),Tmax ([1]; CBD dose 10 mg),Cmax ([1]; CBD dose 20 mg),Tmax ([1]; CBD dose 20 mg),"Tmax ([2]; Table 20, THC, semi-solid SEDDS)","C1/F_obs ([2]; Table 21-2, THC in tributyrin as a carrier (reference))"
"C=C(C)[C@@H]1CCC(C)=C[C@H]1c1c(O)cc(CCCCC)cc1O [CBD, cannabidiol]",2.05 ng/mL,2.17 h,2.58 ng/mL,1.67 h,–,–
"CCCCCc1cc(O)c2c(c1)OC(C)(C)[C@@H]1CCC(C)=C[C@@H]21 [THC, tetrahydrocannabinol]",–,–,–,–,2.00 h,66.835 mL/min/kg
